According to patent US11661431B2, “Thienopyrrole compounds” (Gilead Sciences, Inc., priority 2021, dated 2023):

Key:
[1] = biological target: TLR7 (Homo sapiens (Human), UniProt Q9NYK1); assay: TLR7 human peripheral blood mononuclear cell (PBMC) cell-based assay (GS-986 as agonist; IL-6 and IFNα readout); settings: human PBMCs, TLR7 agonist GS-986 at 400 nM, 6 hours, antagonist potency; read-out: TLR-7 EC50
Outline: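 Human PBMCs (100,000 cells/well) preincubated 1 h at 37 °C with antagonist in 10-point dose response, then stimulated with TLR7 agonist for a further 6 h at 37 °C, 5% CO2. Supernatant IL-6 and IFNα measured by electrochemiluminescence immunoassay.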

[2] = biological target: TLR8 (Homo sapiens (Human), UniProt Q9NR97); assay: TLR8 human peripheral blood mononuclear cell (PBMC) cell-based assay (Compound A as agonist; TNFα and IL12p40 readout); settings: human PBMCs, TLR8 agonist Compound A at 800 nM, 6 hours, antagonist potency; read-out: TLR-8 EC50
Sequence of TLR8 (Q9NR97 27-1041): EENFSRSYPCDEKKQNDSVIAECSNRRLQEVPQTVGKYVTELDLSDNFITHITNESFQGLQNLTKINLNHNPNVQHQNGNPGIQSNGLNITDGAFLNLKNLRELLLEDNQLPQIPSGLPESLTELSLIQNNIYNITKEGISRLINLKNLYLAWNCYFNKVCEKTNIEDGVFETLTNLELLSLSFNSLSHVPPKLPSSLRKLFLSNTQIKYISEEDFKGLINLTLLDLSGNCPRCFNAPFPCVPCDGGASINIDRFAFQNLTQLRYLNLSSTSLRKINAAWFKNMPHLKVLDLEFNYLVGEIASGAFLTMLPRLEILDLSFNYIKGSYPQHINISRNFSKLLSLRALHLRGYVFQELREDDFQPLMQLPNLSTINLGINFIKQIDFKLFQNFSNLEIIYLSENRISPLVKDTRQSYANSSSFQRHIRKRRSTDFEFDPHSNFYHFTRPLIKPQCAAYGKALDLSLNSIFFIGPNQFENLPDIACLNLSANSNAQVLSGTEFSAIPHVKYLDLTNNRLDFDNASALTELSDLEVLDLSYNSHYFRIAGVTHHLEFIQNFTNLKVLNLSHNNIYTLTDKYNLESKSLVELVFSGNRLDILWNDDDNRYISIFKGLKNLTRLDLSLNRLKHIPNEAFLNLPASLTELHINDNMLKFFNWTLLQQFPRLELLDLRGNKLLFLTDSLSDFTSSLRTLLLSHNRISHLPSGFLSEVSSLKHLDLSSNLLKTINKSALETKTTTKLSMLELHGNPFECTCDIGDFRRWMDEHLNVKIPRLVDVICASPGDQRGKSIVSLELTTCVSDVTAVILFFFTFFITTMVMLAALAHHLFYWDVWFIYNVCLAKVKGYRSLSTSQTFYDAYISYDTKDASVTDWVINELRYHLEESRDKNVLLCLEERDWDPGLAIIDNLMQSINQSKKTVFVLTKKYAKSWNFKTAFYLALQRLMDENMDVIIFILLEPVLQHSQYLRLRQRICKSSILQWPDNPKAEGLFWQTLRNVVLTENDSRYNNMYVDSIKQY

Sequence of TLR7 (Q9NYK1 27-1049): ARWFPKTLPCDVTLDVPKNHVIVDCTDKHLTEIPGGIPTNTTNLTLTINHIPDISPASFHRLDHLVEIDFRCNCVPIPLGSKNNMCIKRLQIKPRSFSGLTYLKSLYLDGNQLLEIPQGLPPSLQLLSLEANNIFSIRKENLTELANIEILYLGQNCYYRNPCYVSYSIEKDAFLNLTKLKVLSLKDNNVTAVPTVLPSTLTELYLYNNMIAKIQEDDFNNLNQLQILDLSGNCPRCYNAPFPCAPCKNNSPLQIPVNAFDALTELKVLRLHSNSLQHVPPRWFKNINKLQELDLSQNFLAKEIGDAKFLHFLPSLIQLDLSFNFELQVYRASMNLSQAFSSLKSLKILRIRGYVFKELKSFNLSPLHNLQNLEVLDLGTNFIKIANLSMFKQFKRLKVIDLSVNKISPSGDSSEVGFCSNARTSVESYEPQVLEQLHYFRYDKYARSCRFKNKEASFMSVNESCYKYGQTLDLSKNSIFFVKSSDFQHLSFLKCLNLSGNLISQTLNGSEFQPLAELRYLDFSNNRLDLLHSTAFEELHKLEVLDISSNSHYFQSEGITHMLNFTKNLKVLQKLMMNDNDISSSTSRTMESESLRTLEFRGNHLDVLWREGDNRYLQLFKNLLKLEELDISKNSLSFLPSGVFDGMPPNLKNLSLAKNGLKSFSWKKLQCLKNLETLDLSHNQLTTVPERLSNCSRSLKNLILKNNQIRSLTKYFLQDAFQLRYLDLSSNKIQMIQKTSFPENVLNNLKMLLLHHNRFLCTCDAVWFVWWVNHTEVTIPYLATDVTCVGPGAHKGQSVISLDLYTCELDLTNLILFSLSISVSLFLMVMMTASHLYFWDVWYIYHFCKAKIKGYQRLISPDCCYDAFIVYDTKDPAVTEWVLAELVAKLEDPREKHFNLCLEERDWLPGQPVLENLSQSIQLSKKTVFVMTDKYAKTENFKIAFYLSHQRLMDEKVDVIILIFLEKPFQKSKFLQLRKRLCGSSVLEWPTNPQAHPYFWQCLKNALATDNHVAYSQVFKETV

Row | EC50 [1] [nM] | EC50 [2] [nM] | SMILES
1 | 0.15 | 3.59 | COCc1c(C2CCNCC2)sc2[nH]c(-c3cc(C)c4ncnn4c3)c(C(C)C)c12 [Example 259, 4-isopropyl-3-(methoxymethyl)-5-(8-methyl-[1,2,4]triazolo[1,5-a]pyridin-6-yl)-2-(piperidin-4-yl)-6H-thieno[2,3-b]pyrrole]
2 | 0.3 | 0.28 | Cc1c(-c2[nH]c3sc([C@@H]4C[C@@H]5C[C@H]4CN5CC(=O)N[C@H]4C[C@@H](O)C4)c(C)c3c2C(C)C)cn2ncnc2c1C [Example 269]
3 | 0.64 | 0.59 | Cc1c(-c2[nH]c3sc([C@@H]4C[C@@H]5C[C@H]4CN5CC(=O)N[C@H]4C[C@H](O)C4)c(C)c3c2C(C)C)cn2ncnc2c1C [Example 270]
4 | 0.49 | 0.12 | Cc1c(-c2[nH]c3sc([C@@H]4C[C@@H]5C[C@H]4CN5CC(=O)NC45CC(O)(C4)C5)c(C)c3c2C(C)C)cn2ncnc2c1C [Example 271]
5 | 1.54 | 1.23 | Cc1c(-c2[nH]c3sc([C@@H]4C[C@@H]5C[C@H]4CN5CC(=O)NC4COC4)c(C)c3c2C(C)C)cn2ncnc2c1C [Example 274]
6 | 0.4 | 2.91 | Cc1c(-c2[nH]c3sc([C@H]4C[C@@H]5C[C@H]4CN5)c(C)c3c2C(C)C)cn2ncnc2c1C [Example 275, 2-((1S,4R,5S)-2-azabicyclo[2.2.1]heptan-5-yl)-5-(7,8-dimethyl-[1,2,4]triazolo[1,5-a]pyridin-6-yl)-4-isopropyl-3-methyl-6H-thieno[2,3-b]pyrrole]
7 | 0.06 | 20.1 | CCc1c(C2CCNCC2)sc2[nH]c(-c3cc(C)c4ncnn4c3)c(C(C)C)c12 [Example 277]
8 | 1.19 | 19.5 | Cc1c(-c2[nH]c3sc(C4CCN(C(=O)[C@@H]5CC(F)(F)CCN5)CC4)c(C)c3c2C(C)C)cn2ncnc2c1C [Example 282]
9 | 2.65 | 139 | Cc1c(-c2[nH]c3sc(C4CCN(C(=O)C5COC(C(F)(F)F)CN5)CC4)c(C)c3c2C(C)C)cn2ncnc2c1C (stereo not drawn) [Example 283]
10 | 0.32 | 4.91 | Cc1c(-c2[nH]c3sc(C4CCN(C(=O)[C@H]5C[C@@H](C(F)(F)F)CCN5)CC4)c(C)c3c2C(C)C)cn2ncnc2c1C [Example 284]
11 | 3.2 | 129 | Cc1c(-c2[nH]c3sc(C4CCN(C(=O)[C@H]5CO[C@@H](C(F)(F)F)CN5)CC4)c(C)c3c2C(C)C)cn2ncnc2c1C [Example 285]
12 | 0.94 | 9.39 | Cc1c(-c2[nH]c3sc(C4CCN(C5CCCNC5=O)CC4)c(C)c3c2C(C)C)cn2ncnc2c1C (stereo not drawn) [Example 286, 3-[4-[5-(7,8-dimethyl-[1,2,4]triazolo[1,5-a]pyridin-6-yl)-4-isopropyl-3-methyl-6H-thieno[2,3-b]pyrrol-2-yl]-1-piperidyl]piperidin-2-one]
13 | 0.43 | 12.4 | Cc1c(-c2[nH]c3sc(C4CCN(C5CCNC5=O)CC4)c(C)c3c2C(C)C)cn2ncnc2c1C (stereo not drawn) [Example 287, 3-[4-[5-(7,8-dimethyl-[1,2,4]triazolo[1,5-a]pyridin-6-yl)-4-isopropyl-3-methyl-6H-thieno[2,3-b]pyrrol-2-yl]-1-piperidyl]pyrrolidin-2-one]
14 | 2.74 | 22.6 | Cc1c(-c2[nH]c3sc(C4CCN(C5CCN(C)C5=O)CC4)c(C)c3c2C(C)C)cn2ncnc2c1C (stereo not drawn) [Example 288]
15 | 0.72 | 2.33 | Cc1c(-c2[nH]c3sc(C4CCN(CC5CCN(C)C5=O)CC4)c(C)c3c2C(C)C)cn2ncnc2c1C (stereo not drawn) [Example 289]
16 | 0.06 | 18.5 | Cc1c(-c2[nH]c3sc(C4CCN(C(=O)[C@H]5C[C@@]6(CN(CCO)CCO6)C5)CC4)c(C)c3c2C(C)C)cn2ncnc2c1C [Example 295, [4-[5-(7,8-dimethyl-[1,2,4]triazolo[1,5-a]pyridin-6-yl)-4-isopropyl-3-methyl-6H-thieno[2,3-b]pyrrol-2-yl]-1-piperidyl]-[8-(2-hydroxethyl)-5-oxa-8-azaspiro[3.5]nonan-2-yl]methanone]
17 | < 0.05 | 0.61 | Cc1c(-c2[nH]c3sc([C@@H]4C[C@@H]5C[C@H]4CN5C4CC5(CCNC5=O)C4)c(C)c3c2C(C)C)cn2ncnc2c1C (stereo partly drawn) [Example 297]
18 | < 0.05 | 12.2 | Cc1c(-c2[nH]c3sc(C4CCN(C(=O)[C@H]5C[C@@]6(CN(CC(F)F)CCO6)C5)CC4)c(C)c3c2C(C)C)cn2ncnc2c1C [Example 298, [8-(2,2-difluoroethyl)-5-oxa-8-azaspiro[3.5]nonan-2-yl]-[4-[5-(7,8-dimethyl-[1,2,4]triazolo[1,5-a]pyridin-6-yl)-4-isopropyl-3-methyl-6H-thieno[2,3-b]pyrrol-2-yl]-1-piperidyl]methanone]
19 | 0.13 | 5.66 | Cc1c(-c2[nH]c3sc(C4CCC(N5CC6(C5)CS(=O)(=O)C6)CC4)c(C)c3c2C(C)C)cn2ncnc2c1C (stereo not drawn) [Example 301]

Further lines, the molecule ahead of its results:

Row | SMILES | EC50 [1] [nM] | EC50 [2] [nM]
20 | Cc1cc(-c2[nH]c3sc(C4CCN(C(=O)[C@H]5COCCN5)CC4)c(CO)c3c2C(C)C)cn2ncnc12 [Example 260, (R)-(4-(3-(hydroxymethyl)-4-isopropyl-5-(8-methyl-[1,2,4]triazolo[1,5-a]pyridin-6-yl)-6H-thieno[2,3-b]pyrrol-2-yl)piperidin-1-yl)(morpholin-3-yl)methanone] | 0.31 | 27.3
21 | Cc1c(-c2[nH]c3sc([C@@H]4C[C@@H]5C[C@H]4CN5CC(=O)O)c(C)c3c2C(C)C)cn2ncnc2c1C [Example 264, 2-((1S,4R,5R)-5-(5-(7,8-dimethyl-[1,2,4]triazolo[1,5-a]pyridin-6-yl)-4 isopropyl-3-methyl-6H-thieno[2,3-b]pyrrol-2-yl)-2-azabicyclo[2.2.1]heptan-2-yl)acetic acid] | 2.52 | 13.7
22 | Cc1c(-c2[nH]c3sc([C@@H]4C[C@@H]5C[C@H]4CN5CC(=O)N4CC(O)C4)c(C)c3c2C(C)C)cn2ncnc2c1C [Example 265, 2-((1S,4R,5R)-5-(5-(7,8-dimethyl-[1,2,4]triazolo[1,5-a]pyridin-6-yl)-4 isopropyl-3-methyl-6H-thieno[2,3-b]pyrrol-2-yl)-2-azabicyclo[2.2.1]heptan-2-yl)-1-(3-hydroxyazetidin-1-yl)ethan-1-one] | 0.97 | 0.83
23 | Cc1c(-c2[nH]c3sc([C@@H]4C[C@@H]5C[C@H]4CN5CC(=O)N(C)CCO)c(C)c3c2C(C)C)cn2ncnc2c1C [Example 266] | 1.27 | 0.33
24 | Cc1c(-c2[nH]c3sc([C@@H]4C[C@@H]5C[C@H]4CN5CC(=O)NCCO)c(C)c3c2C(C)C)cn2ncnc2c1C [Example 267] | 0.47 | 0.15
25 | Cc1c(-c2[nH]c3sc(C4C[C@@H]5C[C@H]4CN5CC(=O)N4CCC4)c(C)c3c2C(C)C)cn2ncnc2c1C (stereo partly drawn) [Example 268] | < 0.05 | 0.24
26 | COCCNC(=O)CN1C[C@@H]2C[C@H]1C[C@H]2c1sc2[nH]c(-c3cn4ncnc4c(C)c3C)c(C(C)C)c2c1C [Example 272] | 2.13 | 1.19
27 | Cc1c(-c2[nH]c3sc([C@@H]4C[C@@H]5C[C@H]4CN5CC(=O)NC[C@@H](F)C(C)(C)O)c(C)c3c2C(C)C)cn2ncnc2c1C [Example 273] | 1.24 | 1.01
28 | Cc1c(CC2CCNCC2)sc2[nH]c(-c3cc(C)c4ncnn4c3)c(C(C)C)c12 [Example 278] | 0.17 | 0.8
29 | Cc1c(-c2[nH]c3sc(C4CCN(C(=O)[C@H]5CO[C@H](C)CN5)CC4)c(C)c3c2C(C)C)cn2ncnc2c1C [Example 279, [4-[5-(7,8-dimethyl-[1,2,4]triazolo[1,5-a]pyridin-6-yl)-4-isopropyl-3-methyl-6H-thieno[2,3-b]pyrrol-2-yl]-1-piperidyl]-[(3R,6R)-6-methylmorpholin-3-yl]methanone] | 0.54 | 13.6
30 | Cc1c(-c2[nH]c3sc(C4CCN(C(=O)[C@H]5CO[C@@H](C)CN5)CC4)c(C)c3c2C(C)C)cn2ncnc2c1C [Example 280] | 1.96 | 41.2
31 | Cc1c(-c2[nH]c3sc(C4CCN(C(=O)[C@@H]5NCCO[C@H]5C)CC4)c(C)c3c2C(C)C)cn2ncnc2c1C [Example 281] | 2.17 | 13.8
32 | Cc1c(-c2[nH]c3sc([C@@H]4C[C@@H]5C[C@H]4CN5C4CCS(=O)(=O)C4)c(C)c3c2C(C)C)cn2ncnc2c1C (stereo partly drawn) [Example 294, 3-[(1S,4R)-5-[5-(7,8-dimethyl-[1,2,4]triazolo[1,5-a]pyridin-6-yl)-4-isopropyl-3-methyl-6H-thieno[2,3-b]pyrrol-2-yl]-2-azabicyclo[2.2.1]heptan-2-yl]thiolane 1,1-dioxide] | 0.71 | 2.77
33 | Cc1c(-c2[nH]c3sc(C4CCN(C(=O)[C@H]5C[C@@]6(CN(C)CCO6)C5)CC4)c(C)c3c2C(C)C)cn2ncnc2c1C [Example 296, [4-[5-(7,8-dimethyl-[1,2,4]triazolo[1,5-a]pyridin-6-yl)-4-isopropyl-3-methyl-6H-thieno[2,3-b]pyrrol-2-yl]-1-piperidyl]-(8-methyl-5-oxa-8-azaspiro[3.5]nonan-2-yl)methanone] | < 0.05 | 8.94
34 | Cc1c(-c2[nH]c3sc(C4CCC(N5CC6(CCNC6=O)C5)CC4)c(C)c3c2C(C)C)cn2ncnc2c1C (stereo not drawn) [Example 299, 2-[4-[5-(7,8-dimethyl-[1,2,4]triazolo[1,5-a]pyridin-6-yl)-4-isopropyl-3-methyl-6H-thieno[2,3-b]pyrrol-2-yl]cyclohexyl]-2,6-diazaspiro[3.4]octan-5-one] | 0.1 | 2.17
35 | Cc1c(-c2[nH]c3sc(C4CCC(N5CC6(CCO6)C5)CC4)c(C)c3c2C(C)C)cn2ncnc2c1C (stereo not drawn) [Example 300] | 0.22 | 1.85
36 | Cc1c(-c2[nH]c3sc(C4CCC(N5CC[C@H](F)C5)CC4)c(C)c3c2C(C)C)cn2ncnc2c1C (stereo partly drawn) [Example 302] | 0.1 | 6.4
